We go through one compound from patent US10058419B2, “Oxidation resistant bioprosthetic tissues and preparation thereof” (The Children's Hospital of Philadelphia, priority 2011, dated 2018).

The test system of this assay is ROS activity. Kind of assay: Dihydrorhodamine-123 (DHR123) fluorescence measure of oxidation due to ROS, with H2O2 as oxidant. The following applies: DBP titrated in solution against H2O2 in the presence of DHR123 (FIG. 5). An excerpt:
The ability of DBP to inhibit ROS activity was verified both in solution and when bound to glut-pretreated pericardium, as described above, by monitoring the fluorescence of dihydrorhodamine-123 (DHR123; Molecular Probes Inc., Eugene Oreg.), which is a commonly used measure of oxidation due to ROS. Briefly, the capacity of DBP to reduce ROS activity was proven in this system by titrating DBP in solution against the oxidant hydrogen peroxide (H2O2) in the presence of DHR123.

Take `CC(C)(C)c1cc(CCCN)cc(C(C)(C)C)c1O.Cl` [DBP, 4-hydroxy-3,5-di-tert-butylphenylpropylamine hydrochloride]: the “oxidation signal (DHR123 fluorescence)” value was “dose-dependent inhibition of oxidation signal”.
